Assay results from patent publication US20250186411A1, “Methods of Treating Disorders Associated with Overactivation of IKKB” (The United States Government as represented by the …, priority 2023, published 2025).

Tested on: Tg26 mice
Assay: HIV-1 transgenic (Tg26) model
Format: in vivo, mouse
Experimental: Urine albumin was quantified by ELISA using a kit from Bethyl Laboratory Inc. Urine creatinine levels were measured in the same samples using the Creatinine Colorimetric Assay Kit (500701; Cayman Chemical) as per manufacturer's protocol.
Briefly formalin-fixed and paraffin embedded sections were deparaffinized, and endogenous peroxidase was inactivated with H2O2. All kidney sections from these mice were prepared in identical fashion. Immunofluorescence was performed using rabbit anti-KLF15, mouse anti-WT1 (Santa Cruz, SC-7385), rabbit anti-Synaptopodin (Sigma, SAB3500585), rabbit anti-p65 (Cell Signaling Tech, 8242S) antibodies. After washing, sections were incubated with the appropriate fluorophore-linked secondary antibody (Alexa Fluor 647 Donkey anti-mouse, Alexa Fluor 568 Donkey anti-rabbit antibodies, Life Technologies). After counter staining with Hoechst (Thermo Fisher Scientific), slides were mounted in Prolong Gold mounting media (Thermo Fisher Scientific) and photographed under a Nikon Eclipse Ni-E Fully Motorized Microscope System with a DS-Qi2 digital camera.
Quantification of KLF15 staining in the podocytes was determined by quantifying the intensity of KLF15 staining (optical density) in WT1+Hoechst staining using ImageJ 1.53c software (National Institute of Health, http://imagej.nih.gov/ij).
Mice were perfused with PBS, and the kidneys were fixed in 10% phosphate buffered formalin overnight and switched to 70% ethanol before processing for histology. Kidney tissue was embedded in paraffin by Stony Brook Medicine Research Histology Core Laboratory (RHCL)—Department of Pathology and 4-μm-thick sections were stained with periodic acid-Schiff (PAS), hematoxylin & eosin (H&E), and masson's trichrome (Sigma-Aldrich). Quantification of % FSGS was determined by renal pathology in a blinded fashion (Huntsman Cancer Institute-University of Utah Health).

Compound: CSc1ccc(NC(=O)Nc2ccc(C)nc2)cc1 [BT503]
- p65 expression (kidney lysates): reduced
- albuminuria (daily for 14 days, vs DMSO): significantly mitigated the increase in albuminuria
- % of glomeruli with focal segmental and global GS lesions (vs DMSO): significantly reduced
- glomerular synaptopodin expression (vs DMSO): restored
- interstitial fibrosis (vs DMSO): reduced interstitial fibrosis
- kidney function (serum urea nitrogen and creatinine) (vs DMSO): improved kidney function
- podocyte number (WT1+ podocytes per glomerular cross-sectional area) (vs DMSO): preserved podocyte number
